# In patent EP4603105A1, “PHARMACEUTICAL COMPOSITION CONTAINING CYCLIC COMPOUND HAVING SELECTIVE KRAS INHIBITORY EFFECT AGAINST HRAS AND NRAS” (CHUGAI SEIYAKU KABUSHIKI KAISHA, priority 2022, dated 2024):
# pIC50: −log10 of the molar value. Where a SMILES comes first, the peptide text is derived from it. Bridges are numbered along the chain shown (N, C = ends). [ ]: non-standard residue; d: D form. The star is where a group is joined. hPhe(3-Cl-4-CF3) = N[C@@H](CCc1ccc(C(F)(F)F)c(Cl)c1)C(=O)O; NPrPhe(4-CF3) = CCCN[C@@H](Cc1ccc(C(F)(F)F)cc1)C(=O)O; NEtPhe(4-CF3) = CCN[C@@H](Cc1ccc(C(F)(F)F)cc1)C(=O)O; hPhe(3,4-Cl2) = N[C@@H](CCc1ccc(Cl)c(Cl)c1)C(=O)O; NMeGly(cPent) = CN[C@H](C(=O)O)C1CCCC1; NMeD = CN[C@@H](CC(=O)O)C(=O)O; NMeL = CN[C@@H](CC(C)C)C(=O)O; Morpholide = C1CN(*)CCO1; NMeA = CN[C@@H](C)C(=O)O; Ac5c = NC1(C(=O)O)CCCC1; Aze = O=C(O)[C@@H]1CCN1; Sar = CNCC(=O)O
# What was measured:
# [1] = molecular target: GDP-bound NRAS wild-type protein (Homo sapiens, UniProt P01111); assay: Binding to NRAS by surface plasmon resonance (SPR), KD and KD ratio to KRAS
# Outline: (§1)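 Measured at 30°C: SPR with GDP-loaded, E. coli-expressed biotin-Avi RAS captured (~100–300 RU), ascending 75 s compound injections, HBS pH 7.4 with GDP, MgCl2, 4% DMSO. KD from 1:1 fit.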
# HRAS wild-type protein = HRAS wild-type protein (Homo sapiens, UniProt P01112); assay: Binding to HRAS by surface plasmon resonance (SPR), KD and KD ratio to KRAS
# Outline: as §1
# [2] = system: human lung cancer strain NCI-H441; format: cell-based
# Outline: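 Signal came from […] measured per well once the reagent was added. Beforehand, cells were cultured at 37°C and 5% carbon dioxide on a compound series serially diluted in dimethyl sulfoxide.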
# [3] = ratio of KD value for GDP-bound NRAS wild-type protein to KD value for KRAS (SPR)
# [4] = ratio of KD value for HRAS wild-type protein to KD value for KRAS (SPR)
# [5] = ratio of the KD value with respect to GDP-bound NRAS wild-type protein to the KD value with respect to KRAS
# [6] = ratio of the KD value with respect to HRAS wild-type protein to the KD value with respect to KRAS
# [7] = ratio of KD for GDP-bound NRAS wild-type protein to KD for KRAS
# [8] = ratio of KD for HRAS wild-type protein to KD for KRAS
# Chain of GDP-bound NRAS wild-type protein (P01111 whole entry): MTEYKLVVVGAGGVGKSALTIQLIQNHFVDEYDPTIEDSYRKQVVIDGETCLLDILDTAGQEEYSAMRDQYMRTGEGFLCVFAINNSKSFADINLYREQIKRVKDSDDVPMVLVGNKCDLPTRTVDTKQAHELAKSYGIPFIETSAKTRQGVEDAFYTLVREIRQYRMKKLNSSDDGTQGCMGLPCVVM
# Chain of HRAS wild-type protein (P01112 whole entry): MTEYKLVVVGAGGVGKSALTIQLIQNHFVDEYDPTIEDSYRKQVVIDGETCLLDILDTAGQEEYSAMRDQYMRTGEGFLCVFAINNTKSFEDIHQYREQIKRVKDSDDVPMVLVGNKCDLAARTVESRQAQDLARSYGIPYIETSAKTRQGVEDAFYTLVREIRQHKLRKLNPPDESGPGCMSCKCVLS
SMILES,"NRAS /KRAS [1, 3]",HRAS /KRAS (HRAS wild-type protein; [4]),pIC50 [2],"NRAS /KRAS [1, 5]",HRAS /KRAS (HRAS wild-type protein; [6]),"NRAS /KRAS [1, 7]",HRAS /KRAS (HRAS wild-type protein; [8])
CCO[C@@H]1C[C@H]2C(=O)NC3(CCC3)C(=O)N(C)[C@@H](C3CCCC3)C(=O)N(C)[C@H](C(=O)N(C)CC)CC(=O)N(C)[C@@H](CC3CC3)C(=O)N[C@@H]([C@@H](C)CC)C(=O)N(C)CC(=O)N(C)[C@H]3C/C=C\CCN(C3=O)[C@@H](Cc3ccc(C)cc3)C(=O)N(C)CC(=O)N[C@@H](CCc3ccc(C(F)(F)F)c(OC)c3)C(=O)N2C1 [PP1879],A (a compound having 10 or more and less than 20 is denoted as A),B (a compound having 3 or more and less than 10 is denoted as B),7.77,–,–,–,–
CCO[C@@H]1C[C@H]2C(=O)NC3(CCC3)C(=O)N(C)[C@@H](C(CC)CC)C(=O)N(C)[C@H](C)CC(=O)N(C)[C@@H](CC3CCCC3)C(=O)N[C@@H]([C@@H](C)CC)C(=O)N(C)CC(=O)N(C)[C@H]3C/C=C\CCN(C3=O)[C@@H](Cc3ccc(F)cc3C)C(=O)N(C)CC(=O)N[C@@H](CCc3cc(F)c(C(F)(F)F)c(F)c3)C(=O)N2C1 [PP1522],A (a compound having 10 or more and less than 20 is denoted as A),A (a compound having 10 or more and less than 20 is denoted as A),6.25,–,–,–,–
C#CC[C@H]1C(=O)N[C@@H]([C@@H](C)CC)C(=O)N(C)CC(=O)N(C)[C@H]2C/C=C\CCN(C2=O)[C@@H](Cc2ccc(C(F)(F)F)cc2)C(=O)N(C)CC(=O)N[C@@H](CCc2ccc(C(F)(F)F)c(OC)c2)C(=O)N2C[C@@H](C)C[C@H]2C(=O)NC2(CCC2)C(=O)N(C)[C@@H](C2CCCC2)C(=O)N(C)[C@H](C(=O)N(C)CC)CC(=O)N1C [PP2061],–,–,8.21,AA (a compound having 20 or more is denoted as AA),A (a compound having 10 or more and less than 20 is denoted as A),–,–
CCO[C@@H]1C[C@H]2C(=O)NC3(CC(C)(C)C3)C(=O)N(C)[C@@H](C(CC)CC)C(=O)N(C)[C@H](C(=O)N3CCCC3)CC(=O)N(C)[C@@H](COC)C(=O)N[C@@H]([C@@H](C)CC)C(=O)N(C)CC(=O)N(C)[C@H]3C/C=C\CCN(C3=O)[C@@H](Cc3ccc(C(F)(F)F)cc3)C(=O)N(C)CC(=O)N[C@@H](CCc3cc(F)c(C(F)(F)F)c(F)c3)C(=O)N2C1 [PP2123],–,–,7.61,A (a compound having 10 or more and less than 20 is denoted as A),A (a compound having 10 or more and less than 20 is denoted as A),–,–
"CC[C@H](C)[C@@H]1NC(=O)[C@H](CC(C)C)N(C)C(=O)C[C@@H](C(=O)N2CCOCC2)N(C)C(=O)[C@H](C2CCCC2)N(C)C(=O)C2(CCCC2)NC(=O)[C@@H]2CCCN2C(=O)[C@H](CCc2ccc(Cl)c(Cl)c2)NC(=O)CN(C)C(=O)[C@H](Cc2ccc(C(F)(F)F)cc2)N(CC)C(=O)CN(C)C(=O)CN(C)C1=O [PP0237] ([NMeL]I[Sar][Sar][NEtPhe(4-CF3)][Sar][hPhe(3,4-Cl2)]P[Ac5c][NMeGly(cPent)][NMeD]-Morpholide; lactam N-11)",–,–,8.40,–,–,B (a compound having 3 or more and less than 10 is denoted as B),C (A compound having a KD ratio of 0.1 or more and less than 3 is denoted as C)
CCCN1C(=O)[C@@H]2CCN2C(=O)[C@H](C)N(C)C(=O)[C@H]([C@@H](C)CC)NC(=O)[C@H](CC(C)C)NC(=O)C[C@@H](C(=O)N2CCOCC2)N(C)C(=O)[C@H](C2CCCC2)N(C)C(=O)C2(CCCC2)NC(=O)[C@@H]2CCCN2C(=O)[C@H](CCc2ccc(C(F)(F)F)c(Cl)c2)NC(=O)CN(C)C(=O)[C@@H]1Cc1ccc(C(F)(F)F)cc1 [PP0154] (LI[NMeA][Aze][NPrPhe(4-CF3)][Sar][hPhe(3-Cl-4-CF3)]P[Ac5c][NMeGly(cPent)][NMeD]-Morpholide; lactam N-11),–,–,8.00,–,–,C (A compound having a KD ratio of 0.1 or more and less than 3 is denoted as C),B (a compound having 3 or more and less than 10 is denoted as B)
CCCOC[C@H]1C(=O)N[C@@H]([C@@H](C)CC)C(=O)N(C2CC2)CC(=O)N(C)[C@H]2C/C=C\CCN(C2=O)[C@@H](Cc2ccc(C)cc2)C(=O)N(C)CC(=O)N[C@@H](CCc2ccc(C(F)(F)F)c(OC)c2)C(=O)N2C[C@H](OCC)C[C@H]2C(=O)N(C)C2(CCC2)C(=O)N(C)[C@@H](C(CC)CC)C(=O)N(C)[C@H](C(=O)N(C)C)CC(=O)N1C [PP2327],–,–,8.00,A (a compound having 10 or more and less than 20 is denoted as A),A (a compound having 10 or more and less than 20 is denoted as A),–,–
CC[C@H](C)[C@@H]1NC(=O)[C@H](CCOC)N(C)C(=O)C[C@@H](C(=O)N(C)CC)N(C)C(=O)[C@H](C2CCCC2)N(C)C(=O)C2(CC(C)(C)C2)NC(=O)[C@@H]2C[C@H](C)CN2C(=O)[C@H](CCc2ccc(C(F)(F)F)c(OC)c2)NC(=O)CN(C)C(=O)[C@H](Cc2ccc(C(F)(F)F)cc2)N2CC/C=C\C[C@@H](C2=O)N(C)C(=O)CN(C)C1=O [PP1999],–,–,7.58,A (a compound having 10 or more and less than 20 is denoted as A),B (a compound having 3 or more and less than 10 is denoted as B),–,–
CCCN1C(=O)CN(C)C(=O)CN(C)C(=O)[C@H]([C@@H](C)CC)NC(=O)[C@@H]2CCCCOc3ccc(cc3)C[C@H]1C(=O)N(C)CC(=O)N[C@@H](CCc1cc(F)c(C(F)(F)F)c(F)c1)C(=O)N1C[C@H](OCC)C[C@H]1C(=O)NC1(CCCC1)C(=O)N(C)[C@@H](C1CCCC1)C(=O)N(C)[C@H](C(=O)N(C)C)CC(=O)N2C [PP0894],–,–,8.43,–,–,C (A compound having a KD ratio of 0.1 or more and less than 3 is denoted as C),C (A compound having a KD ratio of 0.1 or more and less than 3 is denoted as C)
CC[C@H](C)[C@@H]1NC(=O)[C@H](CC(C)C)N(C)C(=O)C[C@@H](C(=O)N2CCCCC2)N(C)C(=O)[C@H](C2CCCC2)N(C)C(=O)C2(CCCC2)NC(=O)[C@@H]2CCCN2C(=O)[C@H](CCc2cc(F)c(C(F)(F)F)c(F)c2)NC(=O)CN(C)C(=O)[C@H](Cc2ccc(C(F)(F)F)cc2)N2CCCC[C@@H](C2=O)N(C)C(=O)CN(C)C1=O [PP0572],–,–,8.05,B (a compound having 3 or more and less than 10 is denoted as B),B (a compound having 3 or more and less than 10 is denoted as B),–,–
CCCN(C)C(=O)[C@@H]1CC(=O)N(C)[C@@H](CC2CC2)C(=O)N[C@@H]([C@@H](C)CC)C(=O)N(C)CC(=O)N(C)[C@H]2C/C=C\CCN(C2=O)[C@@H](Cc2ccc(C(F)(F)F)cc2)C(=O)N(C)CC(=O)N[C@@H](CCc2cc(F)c(C(F)(F)F)c(F)c2)C(=O)N2C[C@H](OCC)C[C@H]2C(=O)NC2(CC(F)(F)C2)C(=O)N(C)[C@@H](C2CCCC2)C(=O)N1C [PP1739],AA (a compound having 20 or more is denoted as AA),AA (a compound having 20 or more is denoted as AA),8.26,–,–,–,–
CCCN1C(=O)[C@@H]2CCN2C(=O)[C@H](C)N(C)C(=O)[C@H]([C@@H](C)CC)NC(=O)[C@H](CC(C)C)N(C)C(=O)C[C@@H](C(=O)N2CCOCC2)N(C)C(=O)[C@H](C2CCCC2)N(C)C(=O)C2(CCCC2)NC(=O)[C@@H]2CCCN2C(=O)[C@H](CCc2ccc(C(F)(F)F)c(Cl)c2)NC(=O)CN(C)C(=O)[C@@H]1Cc1ccc(C(F)(F)F)cc1 [PP0053] ([NMeL]I[NMeA][Aze][NPrPhe(4-CF3)][Sar][hPhe(3-Cl-4-CF3)]P[Ac5c][NMeGly(cPent)][NMeD]-Morpholide; lactam N-11),–,–,8.34,–,–,C (A compound having a KD ratio of 0.1 or more and less than 3 is denoted as C),C (A compound having a KD ratio of 0.1 or more and less than 3 is denoted as C)
CCO[C@@H]1C[C@H]2C(=O)NC3(CCC3)C(=O)N(C)[C@@H](C3CCCC3)C(=O)N(C)[C@H](C(=O)N(C)C)CC(=O)N(C)[C@@H](CC)C(=O)N[C@@H]([C@@H](C)CC)C(=O)N(C)CC(=O)N(C)[C@H]3CCCCCN(C3=O)[C@@H](Cc3ccc(C(F)(F)F)cc3)C(=O)N(C)CC(=O)N[C@@H](CCc3cc(F)c(C(F)(F)F)c(F)c3)C(=O)N2C1 [PP0663],–,–,7.64,B (a compound having 3 or more and less than 10 is denoted as B),B (a compound having 3 or more and less than 10 is denoted as B),–,–
CCO[C@@H]1C[C@H]2C(=O)NC3(CCC3)C(=O)N(C)[C@@H](C3CCCC3)C(=O)N(C)[C@H](C(=O)N(C)C)CC(=O)N(C)[C@@H](COC)C(=O)N[C@@H]([C@@H](C)CC)C(=O)NCC(=O)N(C)[C@H]3CCCCCN(C3=O)[C@@H](Cc3ccc(C(F)(F)F)cc3)C(=O)N(C)CC(=O)N[C@@H](CCc3cc(F)c(C(F)(F)F)c(F)c3)C(=O)N2C1 [PP0859],–,–,7.65,–,–,B (a compound having 3 or more and less than 10 is denoted as B),B (a compound having 3 or more and less than 10 is denoted as B)
C#CC[C@H]1C(=O)N[C@@H]([C@@H](C)CC)C(=O)N(C)CC(=O)N(C)[C@H]2C/C=C\CCN(C2=O)[C@@H](Cc2ccc(C(F)(F)F)cc2)C(=O)N(C)CC(=O)N[C@@H](CCc2cc(F)c(C(F)(F)F)c(F)c2)C(=O)N2C[C@H](OCC)C[C@H]2C(=O)NC2(CCC2)C(=O)N(C)[C@@H](C2CCCC2)C(=O)N(C)[C@H](C(=O)N(C)CCC)CC(=O)N1C [PP1703],A (a compound having 10 or more and less than 20 is denoted as A),A (a compound having 10 or more and less than 20 is denoted as A),8.14,–,–,–,–
